Results reported in patent US8618154B2, “LXR modulators” (Bristol-Myers Squibb Company, priority 2009, dated 2013).

System: ABCG1 mRNA in blood cells
Test: In vivo potency and maximum ABCG1 induction in cynomolgus monkey
Settings: po; for EC50: Macaca fascicularis, 5 h
Experimental: Compounds of the present invention were tested for their ability to induce the mRNA for the LXR target gene ABCG1 in blood cells when administered orally to cynomolgus monkeys.
Test compounds were formulated in 0.5% carboxymethyl cellulose (CMC, Sigma) and 2% Tween 80 (Sigma) by trituration. Each treatment group contained three male monkeys, each weighing 3.0-6.0 kg at the start of the study. Test compounds were formulated fresh each morning in vehicle, and animals that had been fasted the previous night were dosed between 7 and 7:30 AM by po gavage. For baseline blood cell mRNA determinations, 1 ml of venous blood was collected in an EDTA dry-coated tube and 1 volume of Dulbecco's Phosphate Buffered Saline without calcium or magnesium and 2 volumes of Nucleic Acid Purification Lysis Solution (Applied Biosystems, Inc.) were added. Samples were frozen at −80° C. prior to RNA isolation and analysis. Test compounds were dosed following the baseline sample collection. At 5 hr post-dose, venous blood was collected and processed as above for RNA determinations. An additional 0.5 ml of blood was also collected and analyzed for compound plasma concentrations.
Frozen samples were allowed to thaw at room temperature, and then placed on ice. Total RNA was isolated on the ABI 6100 using a pre-loaded protocol according to the manufacturer's instructions (ABI Manual #4332809 Rev. B).
qScript cDNA Synthesis Kit from Quanta Biosciences, Inc. was used to generate first-strand cDNA from each total RNA sample. 20 μl Reactions were carried out in 96-well Eppendorf AG twin-tec PCR plates on a MJ Research, Inc. model PTC-200 DNA Engine. Approximately 500 ng of total RNA was used for each reaction. Reactions were composed as follows: 4 μl 5× q-Script Reaction Mix plus 3-5 μl nuclease-free water plus 1 μl q-Script Reverse Transcriptase plus 10-12 μl input RNA. After mixing, reactions were centrifuged at 3750 rpm for 2 minutes at room temperature and run on a “q-Script” protocol (25° C. for 5 minutes, followed by 42° C. for 30 minutes, and then 85° C. for 5 minutes) in a MJ Research thermocycler. Each reaction was diluted with 30 μl of nuclease-free water and used immediately for SYBR-green Q-PCR or stored at −20° C. SYBR-Green Q-PCR reactions were performed as follows. Reaction mixtures for the LXR target gene, ABCG1, and the internal standard normalization gene ribosomal protein L30 were prepared using validated forward/reverse primer sets [ABCG1 (X-Mmul-ABCG1-F1 and X-Mmul-ABCG1-R1); ribosomal protein L30 (SYBR-hL30-F1 and SYBR-hL30-R1)]. […]
The relative amount of ABCG1 mRNA was calculated using the second derivative comparative Ct method (2^−ΔΔCt). Quantification was obtained after normalization to ribosomal protein L30 mRNA. […]

## CC(C)(O)c1cn(-c2ccc(-c3cc(F)c(CO)c(S(C)(=O)=O)c3)cc2)c(C(C)(C)c2cccc(F)c2Cl)n1 [Example 4, 2-(2-(2-(2-chloro-3-fluorophenyl)propan-2-yl)-1-(3′-fluoro-4′-(hydroxymethyl)-5′-(methylsulfonyl)biphenyl-4-yl)-1H-imidazol-4-yl)propan-2-ol]
  EC50: 141 ± 53 nM

## CC(C)(O)c1cn(-c2ccc(-c3cc(F)c(CO)c(S(C)(=O)=O)c3)cc2F)c(C(C)(C)c2c(Cl)cccc2Cl)n1 [Example 9, 2-(2-(2-(2,6-dichlorophenyl)propan-2-yl)-1-(3,3′-difluoro-4′-(hydroxymethyl)-5′-(methylsulfonyl)biphenyl-4-yl)-1H-imidazol-4-yl)propan-2-ol]
  EC50: 11 ± 6 nM

## CC(C)(O)c1cn(-c2ccc(-c3cccc(S(C)(=O)=O)c3)cc2)c(C(C)(C)c2ccccc2Cl)n1 [Compound No. 19, Table 1, WO 2007/002563, reference compound]
  EC50: 630 ± 168 nM
Blood cells, 5 hrs post-dose
  Maximum ABCG1 Induction (fold vs. baseline ± S.E.): 12.4 ± 1.8 fold vs. baseline
